Assay results: US10221152B2 (priority 2013, dated 2019)
Structures can show the parent of a compound that is named as a salt.

Experiments:
[1] = system: Tamiflu-resistant H1N1 viral strain rWSN^H274Y; format: cell-based, Influenza A virus
[2] = system: H1N1 T.R. (Tamiflu-resistant variant of H1N1 viral strain); format: cell-based, Influenza A virus

Row | Structure (SMILES) | concentration required to inhibit rWSN^H274Y (immunofluorescence staining) [1] [µM] | Minimal Inhibitory Concentration (MIC), H1N1 T.R. [2] [mg/L]
1 | COc1c(C)c2c(c(O)c1C/C=C(\C)CCC(=O)OCCN1CCOCC1)C(=O)OC2 [MPM-N, mycophenolate mofetil hydrochloride] | 5 | 
2 | NC(=O)c1ncn([C@@H]2O[C@H](CO)[C@@H](O)[C@H]2O)n1 [Ribavirin, reference compound] | 100 | 
3 | COc1c(C)c2c(c(O)c1C/C=C(\C)CCC(=O)OCCN1CCOCC1)C(=O)OC2 [MPM, 2-morpholinoethyl(E)-6-(1,3-dihydro-4-hydroxy-6-methoxy-7-methyl-3-oxo-5-isobenzofuranyl)-4-methyl-4-hexenoate] |  | 0.39
